According to patent US4378358A, “Benzothiazinopyrazoles having pharmacological activity” (Mediolanum Farmaceutici s.r.l., priority 1980, dated 1983):
Where two headings read alike, the source gives them in different places.

Experiments:
in vivo [1] = format: in vivo; conditions: rat, in vivo, po; read-out: LD 50 (Litchfield and Wilcoxon)
Rat = experiment: in vivo; format: in vivo
rats [2] = format: in vivo, rat; conditions: for Average number of lesions per animal / Gastrolesive effect, relative potency to naproxen / Gastrolesive effect, relative potency to piroxicam: single oral administration, male rats
Method: The test was modified by increasing the fast period to 70 hours and giving the total dose of substance in one single oral administration.
Animals: 10 male rats for each group, average body weight: 150g.

carrageenin paw edema = experiment: Antiinflammatory activity according to Winter et al., carrageenin paw edema, modified; format: in vivo, rat
Method: Antiinflammatory activity according to WINTER et al., Proc. Soc. Exp. Biol. Med.; 111, 544; 1962.
The test was modified in that the injection of carrageenin and the administration of the compound by gastric gavage were carried out simultaneously and the paw edema was measured at the plethysmograph after 4 hours.
Animals: 6 female rats for each group, average body weight: 150g

in vivo [3] = conditions: mouse, po
pyresis = experiment: Antipyretic activity according to Burn et al.; format: in vivo, rat; conditions: for Reduction of the pyresis at hour 4: female rats
Text: Animals: 6 female rats for each group, average body weight 200 g.

phenylquinone writhes = experiment: Analgesic activity according to Hendershot et al., phenylquinone writhes, modified; format: in vivo, mouse
Method: Analgesic activity according to HENDERSHOT et al., Jour. Pharm.
The test was modified by numbering the writhes only along the time interval from 5 to 15 minutes since the injection of phenylquinone. The injection was made 2 hours after the oral administration of the compound to be tested.
Animals: 8 female mice for each group, average body weight: 25g

in vivo [4] = conditions: rat, in vivo, po; for mortality at 120 h: read-out: % of dead animals; for mortality: read-out: % of dead animals per day
Text: (§1) Five days subacute toxicity in rats per os
(§2) Animals: 5 female rats for each group, average body weight: 150g.

rats [5] = experiment: in vivo; conditions: 5 days, rats, per os
Text: as §1, §2

[6] = 100 mg/kg (maximum tested dose)
[7] = Rattus norvegicus, po, 4 h, 50 mg/kg per os, female rats, read-out: % inhibition of the edema after 4 hours
[8] = Rattus norvegicus, po, 4 h, 100 mg/kg per os, female rats, read-out: % inhibition of the edema after 4 hours
[9] = 50 mg/g (so in the source) per os
[10] = 100 mg/g (so in the source) per os
[11] = Mus musculus, 50 mg/kg oral, 2 h before phenylquinone, 5-15 min, female mice
[12] = Mus musculus, 100 mg/kg oral, 2 h before phenylquinone, 5-15 min, female mice

| SMILES | LD50 (in vivo [1]) [mg/kg] | Average number of lesions per animal (rats [2]; [6]) | Gastrolesive effect, relative potency to naproxen (rats [2]) | Gastrolesive effect, relative potency to piroxicam (rats [2]) | Antiinflammatory relative potency to naproxen (carrageenin paw edema; 50 mg/kg per os) | Antiinflammatory relative potency to piroxicam (carrageenin paw edema; 50 mg/kg per os) | Antiinflammatory relative potency to naproxen (carrageenin paw edema; 100 mg/kg per os) | Antiinflammatory relative potency to piroxicam (carrageenin paw edema; 100 mg/kg per os) | inhibition in vivo at 50 mg/kg (carrageenin paw edema; [7]) [%] | inhibition in vivo at 100 mg/kg (carrageenin paw edema; [8]) [%] | LD50 (in vivo [3]) [mg/kg] | Antipyretic relative potency to naproxen (pyresis; [9]) | Antipyretic relative potency to piroxicam (pyresis; [9]) | Reduction of the pyresis at hour 4 (pyresis; [9]) [°C] | Antipyretic relative potency to naproxen (pyresis; [10]) | Antipyretic relative potency to piroxicam (pyresis; [10]) | Reduction of the pyresis at hour 4 (pyresis; [10]) [°C] | Analgesic relative potency to naproxen (phenylquinone writhes; 50 mg/kg oral) | Analgesic relative potency to piroxicam (phenylquinone writhes; 50 mg/kg oral) | Analgesic relative potency to naproxen (phenylquinone writhes; 100 mg/kg oral) | also measured |
| --- | --- | --- | --- | --- | --- | --- | --- | --- | --- | --- | --- | --- | --- | --- | --- | --- | --- | --- | --- | --- | --- |
| CCN(CC)CCNC(=O)c1nn(-c2ccccc2)c2c1N(C)S(=O)(=O)c1ccccc1-2 [Compound I-1, 2-methyl-5-phenyl-1,2-benzothiazino[3,4-d]pyrazole-3-yl-carboxylic acid, 2-(N,N-diethylamino)ethylamide,S,S-dioxide] | 2700 | 0 | > 20 | 100 | 0.5 | 0.2 | 0.8 | 0.4 | 10 | 16 | 2850 | 0.8 | 1.0 | 0.86 | 1.3 | 1.6 | 1.44 | 1.3 | 0.9 | 2.2 | LD 50, relative ratio to piroxicam (Rat; in vivo): 10.0; LD 50, relative ratio to naproxen (Mouse; per os): 2.3; LD 50, relative ratio to piroxicam (Mouse; per os): 7.9; Analgesic relative potency to piroxicam (phenylquinone writhes; 100 mg/kg oral): 1.6; inhibition in vivo at 50 mg/kg (phenylquinone writhes; [11]): 43%; inhibition in vivo at 100 mg/kg (phenylquinone writhes; [12]): 72%; mortality at 120 h (in vivo [4]; 200 mg/kg/day): 0%; Subacute toxicity, relative ratio to naproxen (rats [5]): 4; Subacute toxicity, relative ratio to piroxicam (rats [5]): 10 |
| CN1c2c(C(=O)NCCCNC3CCCCC3)nn(-c3ccccc3)c2-c2ccccc2S1(=O)=O [Compound I-4] | 1090 | 0 | > 20 | 100 | 1.7 | 0.8 | 2.4 | 1.1 | 36 | 50 | 720 | 1.2 | 1.6 | 1.40 | 1.3 | 1.7 | 1.47 | 1.3 | 0.9 | 1.8 | LD 50, relative ratio to piroxicam (Rat; in vivo): 4.0; LD 50, relative ratio to piroxicam (Mouse; in vivo): 2.0; Analgesic relative potency to piroxicam (phenylquinone writhes; 100 mg/kg oral): 1.3; inhibition in vivo at 50 mg/kg (phenylquinone writhes; [11]): 42%; inhibition in vivo at 100 mg/kg (phenylquinone writhes; [12]): 59%; mortality at 120 h (in vivo [4]; 100 mg/kg/day): 0%; mortality (in vivo [4]; 100 mg/kg/day): 0%; mortality at 120 h (in vivo [4]; 200 mg/kg/day): 20%; mortality (in vivo [4]; 200 mg/kg/day): 4%; Subacute toxicity, relative ratio to naproxen (rats [5]): 2; Subacute toxicity, relative ratio to piroxicam (rats [5]): 5 |
| CCN1CCCC1CNC(=O)c1nn(-c2ccccc2)c2c1N(C)S(=O)(=O)c1ccccc1-2 (stereo not drawn) [Compound I-24] | 1060 | 0 | > 20 | 100 | 1.8 | 0.8 | 2.1 | 1.0 | 38 | 45 | 760 | 0.7 | 0.9 | 0.81 | 1.1 | 1.4 | 1.24 | 0.9 | 0.7 | 1.4 | LD 50, relative ratio to piroxicam (Rat; per os): 3.9; LD 50, relative ratio to piroxicam (Mouse; per os): 2.1; Analgesic relative potency to piroxicam (phenylquinone writhes; 100 mg/kg oral): 1.0; inhibition in vivo at 50 mg/kg (phenylquinone writhes; [11]): 30%; inhibition in vivo at 100 mg/kg (phenylquinone writhes; [12]): 47%; mortality at 120 h (in vivo [4]; 200 mg/kg/day): 0%; Subacute toxicity, relative ratio to naproxen (rats [5]): 4; Subacute toxicity, relative ratio to piroxicam (rats [5]): 10 |
| CN(C)CCCNC(=O)c1nn(-c2ccccc2)c2c1N(C)S(=O)(=O)c1ccccc1-2 [Compound I-2] | 2400 | 0 | > 20 | 100 | 0.6 | 0.3 | 0.8 | 0.4 | 12 | 17 | 1380 | 0.5 | 0.7 | 0.58 | 0.8 | 1.0 | 0.89 | 2.1 | 1.5 | 2.8 | LD 50, relative ratio to naproxen (Rat; per os): 4.4; LD 50, relative ratio to piroxicam (Rat; per os): 8.9; LD 50, relative ratio to naproxen (Mouse; per os): 1.1; LD 50, relative ratio to piroxicam (Mouse; per os): 3.8; Analgesic relative potency to piroxicam (phenylquinone writhes; 100 mg/kg oral): 2.0; inhibition in vivo at 50 mg/kg (phenylquinone writhes; [11]): 68%; inhibition in vivo at 100 mg/kg (phenylquinone writhes; [12]): 92%; mortality at 120 h (in vivo [4]; 200 mg/kg/day): 0%; Subacute toxicity, relative ratio to naproxen (rats [5]): 4; Subacute toxicity, relative ratio to piroxicam (rats [5]): 10 |
| CN1c2c(C(=O)NCCCNC3CCCCC3)nn(-c3cccc(F)c3)c2-c2ccccc2S1(=O)=O [Compound I-23] | 1200 | 0 | > 20 | 100 | 1.3 | 0.6 | 1.8 | 0.8 | 27 | 38 | 720 | 1.1 | 1.3 | 1.20 | 1.3 | 1.6 | 1.42 | 1.6 | 1.2 | 2.4 | LD 50, relative ratio to naproxen (Rat; per os): 2.2; LD 50, relative ratio to piroxicam (Rat; per os): 4.4; LD 50, relative ratio to piroxicam (Mouse; in vivo): 2.0; Analgesic relative potency to piroxicam (phenylquinone writhes; 100 mg/kg oral): 1.7; inhibition in vivo at 50 mg/kg (phenylquinone writhes; [11]): 54%; inhibition in vivo at 100 mg/kg (phenylquinone writhes; [12]): 79%; mortality at 120 h (in vivo [4]; 200 mg/kg/day): 0%; Subacute toxicity, relative ratio to naproxen (rats [5]): 4; Subacute toxicity, relative ratio to piroxicam (rats [5]): 10 |
| COc1ccc2cc([C@H](C)C(=O)O)ccc2c1 [Naproxen, naproxen, reference compound] |  |  |  |  |  |  |  |  |  |  |  |  |  |  |  |  |  |  |  |  | Average number of lesions per animal (rats [2]; 5 mg/kg): 0; Average number of lesions per animal (rats [2]; 7.5 mg/kg): 0.9; Gastric ulcerogenicity (in words) (rats [2]; rats): considerable gastrolesive power; inhibition in vivo at 30 mg/kg (carrageenin paw edema; Rattus norvegicus, po, 4 h, 30 mg/kg per os, female rats, read-out: % inhibition of the edema after 4 hours): 21%; Reduction of the pyresis at hour 4 (pyresis; 30 mg/g (so in the source) per os): 1.12 °C; inhibition in vivo at 30 mg/kg (phenylquinone writhes; Mus musculus, 30 mg/kg oral, 2 h before phenylquinone, 5-15 min, female mice): 33% |
